Tests used:
Type in all cases: in vivo
Diabrotica balteata = Diabrotica balteata spray test (germinated wheat grains); settings: 168 h, application rate 100 g/ha (=32 μg/cavity), after 7 days, beetle larvae on wheat, 100% = all wheat plants grown as in untreated, uninfected control, read-out: efficacy in %
Source text: Diabrotica Balteata—Spray Test Solvent: 78 parts by weight of acetone • • 1.5 parts by weight of dimethylformamide Emulsifier: alkylaryl polyglycol ether An appropriate active ingredient formulation is produced by dissolving 1 part by weight of active ingredient with the stated parts by weight of solvent and making the solution up to the desired concentration with water containing an emulsifier concentration of 1000 ppm. Further test concentrations are produced by diluting the formulation with emulsifier-containing water. Pre-swollen wheat grains (Triticum aestivum) are incubated in a multiwell plate filled with agar and a little water for one day (5 seed grains per cavity). The germinated wheat grains are sprayed with an active ingredient formulation of the desired concentration. Subsequently, each cavity is infected with 10-20 beetle larvae of Diabrotica balteata. After 7 days, efficacy in % is determined. 100% means that all wheat plants have grown as in the untreated, uninfected control; 0% means that no wheat plant has grown.

Spodoptera frugiperda = Spodoptera frugiperda spray test (maize leaf disks); settings: foliar, 168 h, application rate 100 g/ha, caterpillars, after 7 days, 100% = all caterpillars killed, read-out: efficacy in %
Source text: Spodoptera frugiuerda—Spray Test
Solvent: 78.0 parts by weight of acetone • • 1.5 parts by weight of dimethylformamide
Emulsifier: alkylaryl polyglycol ether
An appropriate active ingredient formulation is produced by dissolving 1 part by weight of active ingredient with the stated parts by weight of solvent and making the solution up to the desired concentration with water containing an emulsifier concentration of 1000 ppm. Further test concentrations are produced by diluting the formulation with emulsifier-containing water.
Leaf disks of maize (Zea mays) are sprayed with an active ingredient formulation of the desired concentration and, after drying, populated with caterpillars of the fall armyworm (Spodopterafrugiperda).
After 7 days, efficacy in % is determined. 100% means that all of the caterpillars have been killed; 0% means that none of the caterpillars have been killed.

Nezara viridula = Nezara viridula spray test (barley plants); settings: 96 h, application rate 500 g/ha, larvae, after 4 days, 100% = all shield bugs killed, read-out: efficacy in %
Source text: Nezara viridula—Spray Test Solvent: 78.0 parts by weight of acetone • • 1.5 parts by weight of dimethylformamide Emulsifier: alkylaryl polyglycol ether An appropriate active ingredient formulation is produced by dissolving 1 part by weight of active ingredient with the stated parts by weight of solvent and making the solution up to the desired concentration with water containing an emulsifier concentration of 1000 ppm. Further test concentrations are produced by diluting the formulation with emulsifier-containing water. Barley plants (Hordeum vulgare) are sprayed with an active ingredient formulation of the desired concentration and are infected with larvae of the Southern green shield bug (Nezara viridula). After 4 days, efficacy in % is determined. 100% means that all of the shield bugs have been killed; 0% means that none of the shield bugs have been killed.

SMILES	pest or weed control at 100 g/ha (Diabrotica balteata) [%]	pest or weed control at 100 g/ha (Spodoptera frugiperda) [%]	pest or weed control at 500 g/ha (Nezara viridula) [%]
CCS(=O)(=O)c1c(-c2nc3cc4c(cc3n2C)OC(F)(F)C(F)(F)O4)nc(-c2cccc(Br)c2)n1C [Example I-12, 2-[2-(3-Bromophenyl)-5-(ethylsulfonyl)-1-methyl-1H-imidazol-4-yl]-6,6,7,7-tetrafluoro-1-methyl-6,7-dihydro-1H-[1,4]dioxino[2,3-f]benzimidazole]	100	100	
CCS(=O)(=O)c1c(-c2nc3cc4c(cc3n2C)OC(F)(F)C(F)(F)O4)nc(-c2cccc(C3(C#N)CC3)c2)n1C [Example I-36]	100	100	90
CCS(=O)(=O)c1c(-c2nc3cc4c(cc3[nH]2)OC(F)(F)C(F)(F)O4)nc(Br)n1C [Example I-2, 2-[2-Bromo-5-(ethylsulfonyl)-1-methyl-1H-imidazol-4-yl]-6,6,7,7-tetrafluoro-6,7-dihydro-1H-[1,4]dioxino[2,3-f]benzimidazole]	100	100	
CCS(=O)(=O)c1c(-c2nc3cc4c(cc3n2C)OC(F)(F)C(F)(F)O4)nc(-c2ccc(C3CC3)nc2)n1C [Example I-18, 2-[2-(6-Cyclopropylpyridin-3-yl)-5-(ethylsulfonyl)-1-methyl-1H-imidazol-4-yl]-6,6,7,7-tetrafluoro-1-methyl-6,7-dihydro-1H-[1,4]dioxino[2,3-f]benzimidazole]	100	100	100
CCS(=O)(=O)c1c(-c2nc3cc4c(cc3n2C)OC(F)(F)C(F)(F)O4)nc(-c2ccc(C3(C(F)(F)F)CC3)cc2)n1C [Example I-7, 2-[5-(Ethylsulfonyl)-1-methyl-2-{4-[1-(trifluoromethyl)cyclopropyl]phenyl}-1H-imidazol-4-yl]-6,6,7,7-tetrafluoro-1-methyl-6,7-dihydro-1H-[1,4]dioxino[2,3-f]benzimidazole]	100		
CCS(=O)(=O)c1c(-c2nc3cc4c(cc3n2C)OC(F)(F)C(F)(F)O4)nc(-c2cccc(C3(F)CC3)c2)n1C [Example I-20, 2-{5-(Ethylsulfonyl)-2-[3-(1-fluorocyclopropyl)phenyl]-1-methyl-1H-imidazol-4-yl}-6,6,7,7-tetrafluoro-1-methyl-6,7-dihydro-1H-[1,4]dioxino[2,3-f]benzimidazole]	100	100	90
CCS(=O)(=O)c1c(-c2nc3cc4c(cc3n2C)OC(F)(F)C(F)(F)O4)nc(-c2ccc(C#N)cn2)n1C [Example I-32, 6-[5-(Ethylsulfonyl)-1-methyl-4-(6,6,7,7-tetrafluoro-1-methyl-6,7-dihydro-1H-[1,4]dioxino[2,3-f]benzimidazol-2-yl)-1H-imidazol-2-yl]nicotinonitrile]	100	100	
CCS(=O)(=O)c1c(-c2nc3cc4c(cc3n2C)OC(F)(F)C(F)(F)O4)nc(-c2ccc(Cl)cn2)n1C [Example I-31, 2-[2-(5-Chloropyridin-2-yl)-5-(ethylsulfonyl)-1-methyl-1H-imidazol-4-yl]-6,6,7,7-tetrafluoro-1-methyl-6,7-dihydro-1H-[1,4]dioxino[2,3-f]benzimidazole]		100	
CCS(=N)(=O)c1c(-c2nc3cc4c(cc3n2C)OC(F)(F)C(F)(F)O4)nc(-c2ccc(C3(C#N)CC3)cc2)n1C (stereo not shown) [Example I-39]		100	
CCS(=O)(=O)c1c(-c2nc3cc4c(cc3n2C)OC(F)(F)C(F)(F)O4)nc(-c2ccc(Br)cn2)n1C [Example I-24, 2-[2-(5-Bromopyridin-2-yl)-5-(ethylsulfonyl)-1-methyl-1H-imidazol-4-yl]-6,6,7,7-tetrafluoro-1-methyl-6,7-dihydro-1H-[1,4]dioxino[2,3-f]benzimidazole]	100	100	100
CCS(=O)(=O)c1c(-c2nc3cc4c(cc3n2C)OC(F)(F)C(F)(F)O4)nc(-n2cnc(C3CC3)n2)n1C [Example I-23, 2-[2-(3-Cyclopropyl-1H-1,2,4-triazol-1-yl)-5-(ethylsulfonyl)-1-methyl-1H-imidazol-4-yl]-6,6,7,7-tetrafluoro-1-methyl-6,7-dihydro-1H-[1,4]dioxino[2,3-f]benzimidazole]	80	100	100
CCS(=O)(=O)c1c(-c2nc3cc4c(cc3n2C)OC(F)(F)C(F)(F)O4)nc(-c2ccc(-c3ccc(Br)cn3)cn2)n1C [Example I-25]		100	
CCS(=O)(=O)c1c(-c2nc3cc4c(cc3n2C)OC(F)(F)C(F)(F)O4)nc(-c2ccc(C(F)(F)F)cc2)n1C [Example I-15, 2-{5-(Ethylsulfonyl)-1-methyl-2-[4-(trifluoromethyl)phenyl]-1H-imidazol-4-yl}-6,6,7,7-tetrafluoro-1-methyl-6,7-dihydro-1H-[1,4]dioxino[2,3-f]benzimidazole]	100	100	100
CCS(=O)(=O)c1c(-c2nc3cc4c(cc3n2C)OC(F)(F)C(F)(F)O4)nc(-c2ccc(C3(F)CC3)cc2)n1C [Example I-11, 2-{5-(Ethylsulfonyl)-2-[4-(1-fluorocyclopropyl)phenyl]-1-methyl-1H-imidazol-4-yl}-6,6,7,7-tetrafluoro-1-methyl-6,7-dihydro-1H-[1,4]dioxino[2,3-f]benzimidazole]	100	100	100
CCS(=O)(=O)c1c(-c2nc3cc4c(cc3n2C)OC(F)(F)C(F)(F)O4)nc(-c2ccc(Cl)s2)n1C [Example I-19, 2-[2-(5-Chloro-2-thienyl)-5-(ethylsulfonyl)-1-methyl-1H-imidazol-4-yl]-6,6,7,7-tetrafluoro-1-methyl-6,7-dihydro-1H-[1,4]dioxino[2,3-f]benzimidazole]		100	100
CCS(=O)(=O)c1c(-c2nc3cc4c(cc3n2C)OC(F)(F)C(F)(F)O4)nc(-c2cccc(Cl)c2)n1C [Example I-13, 2-[2-(3-Chlorophenyl)-5-(ethylsulfonyl)-1-methyl-1H-imidazol-4-yl]-6,6,7,7-tetrafluoro-1-methyl-6,7-dihydro-1H-[1,4]dioxino[2,3-f]benzimidazole]	100	100	
CCS(=O)(=O)c1c(-c2nc3cc4c(cc3n2C)OC(F)(F)C(F)(F)O4)nc(-c2ccc(F)cc2)n1C [Example I-5, 2-[5-(Ethylsulfonyl)-2-(4-fluorophenyl)-1-methyl-1H-imidazol-4-yl]-6,6,7,7-tetrafluoro-1-methyl-6,7-dihydro-1H-[1,4]dioxino[2,3-f]benzimidazole]	100	100	
CCS(=O)(=O)c1c(-c2nc3cc4c(cc3n2C)OC(F)(F)C(F)(F)O4)nc(-c2ccc(Br)cc2)n1C [Example I-10, 2-[2-(4-Bromophenyl)-5-(ethylsulfonyl)-1-methyl-1H-imidazol-4-yl]-6,6,7,7-tetrafluoro-1-methyl-6,7-dihydro-1H-[1,4]dioxino[2,3-f]benzimidazole]	100	100	100
